One test has as its target T1, CB1 receptor (Rattus norvegicus, UniProt P20272).
T1 construct: membranes were prepared from rat forebrain membranes; from tissue; host or cells: rat forebrain membranes
The test is described as follows: CB1 receptor binding, rat forebrain membranes, [3H]CP-55,940 displacement. On the procedure: (§1) The prepared cannabinoid compounds were tested for CB2 receptor binding affinity and for CB1 receptor affinity (to determine selectivity for the CB2 receptor). As used herein, “binding affinity” is represented by the IC50 value which is the concentration of an analog required to occupy the 50% of the total number (Bmax) of the receptors. The lower the IC50 value, the higher the binding affinity. […] The binding affinities (Ki) are expressed in nanomoles (nM).
For the CB1 receptor-binding studies, membranes were prepared from rat forebrain membranes according to the procedure of P. R. Dodd et al; A Rapid Method for Preparing Synaptosomes: Comparison with Alternative Procedures, Brain Res., 107–118 (1981). The binding of the novel analogues to the CB1 cannabinoid receptor was assessed as described in W. A. Devane et al; Determination and Characterization of a Cannabinoid Receptor in a Rat Brain, Mol. Pharmacol., 34, 605–613 (1988) and A. Charalambous et al; “5′-azido ^8−-THC: A Novel Photoaffinity Label for the Cannabinoid Receptor”, J. Med. Chem., 35, 3076–3079 (1992) with the following changes. The above articles are incorporated by reference herein.
Membranes, previously frozen at −80° C., were thawed on ice. To the stirred suspension was added three volumes of TME (25 mM Tris-HCl buffer, 5 mM MgCl2 and 1 mM EDTA) at a pH 7.4.The suspension was incubated at 4° C. for 30 min. At the end of the incubation, the membranes were pelleted and washed three times with TME.
(§2) The treated membranes were subsequently used in the binding assay described below. Approximately 30 μg of membranes were incubated in silanized 96-well microtiter plate with TME containing 0.1% essentially fatty acid-free bovine serum albumin (BSA), 0.8 nM [^3H] CP-55,940, and various concentrations of test materials at 30° C. for 1 hour. The samples were immediately filtered using a Packard Filtermate 196 and Whatman GF/C filterplates and washed with wash buffer (TME) containing 0.5% BSA. Radioactivity was detected using MicroScint 20 scintillation cocktail added directly to the dried filterplates, and the filterplates were counted using a Packard Instruments Top-Count. Nonspecific binding was assessed using 100 nM CP-55,940. Data collected from three independent experiments performed with duplicate determinations was normalized between 100% and 0% specific binding for [^3H] CP-55,940, determined using buffer and 100 nM CP-55,940.The normalized data was analyzed using a 4-parameter nonlinear logistic equation to yield IC50 values. Data from at least two independent experiments performed in duplicate was used to calculate IC50 values which were converted to Ki values using the using the assumptions of Cheng et al; “Relationship Between the Inhibition Constant (Ki) and the concentration of Inhibitor which causes 50% Inhibition (IC50) of an Enzymatic Reaction”, Biochem. Pharmacol., 22, 3099–3102, (1 973), which is incorporated by reference herein.

In the next test the target is T2, CB2 receptor (Mus musculus, UniProt P47936).
T2 construct: membranes were prepared from frozen mouse spleen; from tissue; host or cells: frozen mouse spleen membranes
T2 sequence (P47936 whole entry): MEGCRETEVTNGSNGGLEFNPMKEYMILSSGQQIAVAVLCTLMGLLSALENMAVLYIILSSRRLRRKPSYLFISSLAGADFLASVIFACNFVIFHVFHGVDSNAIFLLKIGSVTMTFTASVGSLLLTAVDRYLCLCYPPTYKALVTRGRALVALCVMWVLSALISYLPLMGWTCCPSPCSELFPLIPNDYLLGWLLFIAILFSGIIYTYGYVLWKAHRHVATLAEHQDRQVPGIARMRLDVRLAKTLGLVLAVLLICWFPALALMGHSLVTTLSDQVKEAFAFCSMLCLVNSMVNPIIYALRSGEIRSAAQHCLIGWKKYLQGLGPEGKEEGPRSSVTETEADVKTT
The test is described as follows: CB2 receptor binding, mouse spleen membranes, [3H]CP-55,940 displacement. The conditions noted are these: for Ki: mouse spleen membranes. On the procedure: as §1, §2
For the CB2 receptor binding studies, membranes were prepared from frozen mouse spleen essentially according to the procedure of P. R. Dodd et al; “A Rapid Method for Preparing Synaptosomes: Comparison with Alternative Procedures”, Brain Res., 226, 107–118 (1981) which is incorporated by reference herein. Silanized centrifuge tubes were used throughout to minimize receptor loss due to adsorption. The CB2 binding assay was conducted in the same manner as the CB1 binding assay. The binding affinities (Ki) were also expressed in nanomoles (nM).

Another test has as its target T3, human CB2 receptors (Homo sapiens, UniProt P34972).
T3 construct: using the below described procedure with human tissue samples; from tissue
Kind of test: Binding affinity to human CB2 receptors, human tissue samples.

[1] abbreviates: Table 1, 0.8 nM [3H]CP-55,940, read-out: Ki nM CB1.
The mark [2] stands for this setting: Table 2, 0.8 nM [3H]CP-55,940, read-out: Ki nM CB1.
[3] abbreviates: Table 2, human CB2, read-out: Ki nM CB2 (Human).
The mark [4] stands for this setting: Ki nM CB1, Table 2, 0.8 nM [3H]CP-55,940.

Data on 32 compounds can be found in patent publication US7173027B2, “Receptor selective cannabimimetic aminoalkylindoles” (University of Connecticut, priority 2001, dated 2007).

SMILES strings stand for the structures. Read-outs that look alike come from different tables or passages of the source.

T3 sequence (P34972 whole entry): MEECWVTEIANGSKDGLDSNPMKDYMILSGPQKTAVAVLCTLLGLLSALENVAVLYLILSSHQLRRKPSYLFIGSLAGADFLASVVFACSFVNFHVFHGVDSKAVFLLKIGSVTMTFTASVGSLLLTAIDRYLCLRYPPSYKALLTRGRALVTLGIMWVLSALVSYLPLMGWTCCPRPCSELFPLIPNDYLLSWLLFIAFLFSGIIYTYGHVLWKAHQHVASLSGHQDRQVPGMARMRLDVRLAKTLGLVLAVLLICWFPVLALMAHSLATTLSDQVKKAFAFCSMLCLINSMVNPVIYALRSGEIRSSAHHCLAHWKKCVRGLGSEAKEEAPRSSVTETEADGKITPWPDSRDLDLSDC
T1 sequence (P20272 whole entry): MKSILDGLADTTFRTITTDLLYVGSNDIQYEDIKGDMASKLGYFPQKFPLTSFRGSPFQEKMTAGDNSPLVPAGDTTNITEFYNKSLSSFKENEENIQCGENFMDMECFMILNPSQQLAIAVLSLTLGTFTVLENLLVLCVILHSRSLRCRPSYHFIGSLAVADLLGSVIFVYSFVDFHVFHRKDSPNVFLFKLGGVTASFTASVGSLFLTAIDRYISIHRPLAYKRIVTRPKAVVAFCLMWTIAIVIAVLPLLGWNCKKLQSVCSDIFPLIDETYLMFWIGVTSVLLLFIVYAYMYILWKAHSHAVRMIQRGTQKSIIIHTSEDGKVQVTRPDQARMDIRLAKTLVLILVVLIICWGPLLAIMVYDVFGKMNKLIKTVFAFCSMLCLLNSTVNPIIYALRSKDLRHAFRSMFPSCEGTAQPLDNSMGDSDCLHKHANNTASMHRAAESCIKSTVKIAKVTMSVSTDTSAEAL

In general, Ki refers to a dissociation constant, usually derived from enzyme kinetics or from competition with a known ligand. For `CN1CCCCC1Cn1cc(C(=O)c2cc([N+](=O)[O-])ccc2I)c2ccccc21` (racemic) [2-7(R, S)], the Ki on CB1 receptor (setting [1]) worked out at 403 nM; on CB2 receptor (Table 1, read-out: Ki nM CB2), 5.7 nM; at human CB2 receptors (Table 1, human CB2, human tissue samples, read-out: Ki nM CB2 (human)), 1.6 nM. On CB2 receptor (CB2 versus CB1 binding), the “selectivity for the CB2 receptor (in words)” value is on record as “high selectivity for the CB2 receptor”. The “binding affinity to human CB2 receptors (in words)” value at human CB2 receptors (human tissue samples) is “surprisingly potent cannabinoid”.
For the compound `CN1CCCCC1Cn1cc(C(=O)c2cc([N+](=O)[O-])ccc2I)c2ccccc21` (racemic) [2-32(R,S)], the Ki on CB1 receptor (setting [2]) stood at 239 nM; on CB2 receptor (Table 2, read-out: Ki nM CB2) it was 3.41 nM; at human CB2 receptors (setting [3]) it was 13.6 nM.
Regarding `CN1CCCCC1Cn1cc(C(=O)c2ccccc2I)c2ccccc21` (racemic) [2-34(R,S)], the Ki on CB1 receptor (setting [2]) stood at 2.89 nM; on human CB2 receptors (setting [3]), 2.49 nM.
Turning to `CN1CCCC[C@@H]1Cn1cc(C(=O)c2cc([N+](=O)[O-])ccc2I)c2ccccc21` [2-7(R)], the Ki on CB1 receptor (Ki nM CB1, Table 1, 0.8 nM [3H]CP-55,940) stood at 285 nM; at CB2 receptor (Ki nM CB2, Table 1), 0.53 nM.
Take `CN1CCCC[C@@H]1Cn1cc(C(=O)c2ccccc2I)c2ccccc21` [2-24(R)]: on CB1 receptor (setting [1]), the Ki amounted to 1.8 nM.
In the case of `CN1CCCC[C@H]1Cn1cc(C(=O)c2ccccc2I)c2ccccc21` [2-24(S)], the Ki at CB1 receptor (setting [1]) was 561 nM.
With `O=C(c1ccccc1I)c1cn(CC2COCCN2Cc2ccccc2)c2ccccc12` (stereo not drawn) [2-25], the Ki at CB1 receptor (setting [2]) worked out at 1220 nM; on CB2 receptor (Table 2, read-out: Ki nM CB2), 1800 nM.
In the same order, the values of `O=C(c1cc([N+](=O)[O-])ccc1I)c1cn(CC2COCCN2Cc2ccccc2)c2ccccc12` (stereo not drawn) [2-26] are 4210 nM and 1430 nM.
On to `O=C(c1cccc([N+](=O)[O-])c1I)c1cn(CC2COCCN2Cc2ccccc2)c2ccccc12` (stereo not drawn) [2-27], for which the Ki at CB1 receptor (setting [2]) was determined as 2380 nM; on CB2 receptor (Table 2, read-out: Ki nM CB2), 928 nM.
In the same order, the values of `CN1CCOCC1Cn1cc(C(=O)c2ccccc2I)c2ccccc21` (stereo not drawn) [2-28] are 27.9 nM and 226 nM.
Consider `CN1CCOCC1Cn1cc(C(=O)c2cc([N+](=O)[O-])ccc2I)c2ccccc21` (stereo not drawn) [2-29], for which the Ki was determined as 848 nM at CB1 receptor (setting [2]) and 48.4 nM on CB2 receptor (Table 2, read-out: Ki nM CB2).
In the case of `CN1CCOCC1Cn1cc(C(=O)c2cccc([N+](=O)[O-])c2I)c2ccccc21` (stereo not drawn) [2-30], the Ki at CB1 receptor (setting [2]) stood at 464 nM; on CB2 receptor (Table 2, read-out: Ki nM CB2), 154 nM.
In the same order, the values of `CN1CCOCC1Cn1cc(C(=O)c2cccc3ccccc23)c2ccccc21` (stereo not drawn) [2-31] are 5.7 nM and 26.6 nM.
With `CN1CCCC[C@@H]1Cn1cc(C(=O)c2cc([N+](=O)[O-])ccc2I)c2ccccc21` [2-32(R)], the Ki is 140 nM on CB1 receptor (setting [4]); 1.42 nM at CB2 receptor (Ki nM CB2, Table 2); 6.69 nM on human CB2 receptors.
In the same order, the values of `CN1CCCCC1Cn1cc(C(=O)C23CC4CC(CC(C4)C2)C3)c2ccccc21` (stereo not drawn) [2-33, 1-(N-Methyl-2-piperidinyl)methyl-3-(1-adamantanecarbonyl)-1H-indole] are 11.9 nM, 4.8 nM and 2.32 nM.
Take `CN1CCCC[C@@H]1Cn1cc(C(=O)c2ccccc2I)c2ccccc21` [2-34(R)]: the Ki at CB1 receptor (setting [4]) is 1.57 nM.
`CN1CCCC[C@H]1Cn1cc(C(=O)c2ccccc2I)c2ccccc21` [2-34(S)] showed a Ki on CB1 receptor (setting [4]) of 14.2 nM.
Regarding `CN1CCCCC1Cn1cc(C(=O)c2ccc3ccccc3n2)c2ccccc21` (stereo not drawn) [2-35], the Ki amounted to 14.4 nM on CB1 receptor (setting [2]) and 20.9 nM on CB2 receptor (Table 2, read-out: Ki nM CB2).
`CN1CCCCC1Cn1cc(C(=O)c2cnc3ccccc3c2)c2ccccc21` (stereo not drawn) [2-36]: the Ki was 133 nM on CB1 receptor (setting [2]) and 8.53 nM on CB2 receptor (Table 2, read-out: Ki nM CB2).
With `CN1CCCCC1Cn1cc(C(=O)c2cnccn2)c2ccccc21` (stereo not drawn) [2-37], the Ki was 3540 nM on CB1 receptor (setting [2]) and 837 nM at CB2 receptor (Table 2, read-out: Ki nM CB2).
In the same order, the values of `CN1CCCCC1Cn1cc(C(=O)c2ccnc3ccccc23)c2ccccc21` (stereo not drawn) [2-38] are 719 nM and 747 nM.
In the same order, the values of `CN1CCCCC1Cn1cc(C(=O)c2cccs2)c2ccccc21` (stereo not drawn) [2-39] are 41.4 nM and 19.5 nM.
In the same order, the values of `CN1CCCCC1Cn1cc(C(=O)c2cc3ccccc3cn2)c2ccccc21` (stereo not drawn) [2-40] are 28.6 nM and 14.5 nM.
Turning to `CN1CCCCC1Cn1cc(C(=O)c2cnc3ccccc3n2)c2ccccc21` (stereo not drawn) [2-41], the Ki on CB1 receptor (setting [2]) was found to be 158 nM; at CB2 receptor (Table 2, read-out: Ki nM CB2), 160 nM.
Turning to `CN1CCCCC1Cn1cc(C(=O)c2ccccn2)c2ccccc21` (stereo not drawn) [2-42], the Ki is 421 nM on CB1 receptor (setting [2]) and 147 nM on CB2 receptor (Table 2, read-out: Ki nM CB2).
In the case of `CN1CCCCC1Cn1cc(C(=O)c2cccc[n+]2[O-])c2ccccc21` (stereo not drawn) [2-43], the Ki at CB1 receptor (setting [2]) was determined as 8820 nM; on CB2 receptor (Table 2, read-out: Ki nM CB2), 1860 nM.
In the same order, the values of `CN1CCCCC1Cn1cc(C(=O)c2cncc3ccccc23)c2ccccc21` (stereo not drawn) [2-44] are 16.9 nM and 7.04 nM.
Take `CN1CCCCC1Cn1cc(C(=O)c2cc(C#N)ccc2I)c2ccccc21` (stereo not drawn) [2-45]: the Ki at CB1 receptor (setting [2]) worked out at 418 nM; at CB2 receptor (Table 2, read-out: Ki nM CB2), 15.8 nM.
On the same counts, the results for `CN1CCCCC1Cn1cc(C(=O)c2cc(C#N)ccc2I)c2ccccc21` (stereo not drawn) [2-46] are 339 nM and 15.4 nM.
In the same order, the values of `CN1CCCCC1Cn1cc(C(=O)c2cc(C(=O)O)ccc2I)c2ccccc21` (stereo not drawn) [2-47] are 240 nM and 18.8 nM.
Turning to `CN1CCCCC1Cn1cc(C(=O)c2cc(C(N)=O)ccc2I)c2ccccc21` (stereo not drawn) [2-48], the Ki on CB1 receptor (setting [2]) was found to be 390 nM; on CB2 receptor (Table 2, read-out: Ki nM CB2), 47.2 nM.
On the same counts, the results for `CN1CCCCC1Cn1cc(C(=O)c2cc(O)ccc2I)c2ccccc21` (stereo not drawn) [2-49] are 29.1 nM and 18.6 nM.
